Assay results reported in PubChem BioAssay (NCI).
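In this assay, cells in 96-well plates receive the compound at five concentrations for 48 hours. Endpoints are linearly interpolated between the surrounding concentrations. GI50 marks 50% less growth. TGI: concentration producing complete growth inhibition.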

Columns and labels:
Experiment in all cases: NCI-60 cell line screen, 48 h
786-0 renal = test system: 786-0 renal
A498 renal = test system: A498 renal
A549 NSCLC = test system: A549 NSCLC
ACHN renal = test system: ACHN renal
CCRF-CEM leukemia = test system: CCRF-CEM leukemia
COLO 205 colon = test system: COLO 205 colon
DU-145 prostate = test system: DU-145 prostate
EKVX NSCLC = test system: EKVX NSCLC
HCT-116 colon = test system: HCT-116 colon
HCT-15 colon = test system: HCT-15 colon
HOP-62 NSCLC = test system: HOP-62 NSCLC
HS 578T breast = test system: HS 578T breast
HT29 colon = test system: HT29 colon
IGROV1 ovarian = test system: IGROV1 ovarian
K-562 leukemia = test system: K-562 leukemia
KM12 colon = test system: KM12 colon
LOX IMVI melanoma = test system: LOX IMVI melanoma
M14 melanoma = test system: M14 melanoma
MALME-3M melanoma = test system: MALME-3M melanoma
MCF7 breast = test system: MCF7 breast
MDA-MB-231 breast = test system: MDA-MB-231 breast
MDA-MB-435 = test system: MDA-MB-435
MDA-N = test system: MDA-N
MOLT-4 leukemia = test system: MOLT-4 leukemia
NCI-H226 lung = test system: NCI-H226 lung
NCI-H23 lung = test system: NCI-H23 lung
NCI/ADR-RES ovarian = test system: NCI/ADR-RES ovarian
OVCAR-3 ovarian = test system: OVCAR-3 ovarian
OVCAR-4 ovarian = test system: OVCAR-4 ovarian
OVCAR-5 ovarian = test system: OVCAR-5 ovarian
OVCAR-8 ovarian = test system: OVCAR-8 ovarian
PC-3 prostate = test system: PC-3 prostate
RPMI-8226 leukemia = test system: RPMI-8226 leukemia
SF-268 CNS = test system: SF-268 CNS
SF-295 CNS = test system: SF-295 CNS
SF-539 CNS = test system: SF-539 CNS
SK-MEL-2 melanoma = test system: SK-MEL-2 melanoma
SK-MEL-28 melanoma = test system: SK-MEL-28 melanoma
SK-MEL-5 melanoma = test system: SK-MEL-5 melanoma
SK-OV-3 ovarian = test system: SK-OV-3 ovarian
SN12C renal = test system: SN12C renal
SNB-19 CNS = test system: SNB-19 CNS
SNB-75 CNS = test system: SNB-75 CNS
SR leukemia = test system: SR leukemia
SW-620 colon = test system: SW-620 colon
TK-10 renal = test system: TK-10 renal
U251 CNS = test system: U251 CNS
UACC-257 melanoma = test system: UACC-257 melanoma
UACC-62 melanoma = test system: UACC-62 melanoma
UO-31 renal = test system: UO-31 renal
BT-549 breast = test system: BT-549 breast
CAKI-1 renal = test system: CAKI-1 renal
HCC-2998 colon = test system: HCC-2998 colon
HL-60(TB) leukemia = test system: HL-60(TB) leukemia
HOP-92 NSCLC = test system: HOP-92 NSCLC
NCI-H460 lung = test system: NCI-H460 lung
NCI-H522 lung = test system: NCI-H522 lung
RXF 393 renal = test system: RXF 393 renal
T-47D breast = test system: T-47D breast

`CC(=O)Oc1cc2oc(=O)cc(C)c2cc1OC(C)=O` gave a TGI (786-0 renal) greater than 100 µM, a TGI (A498 renal) greater than 100 µM and a TGI (A549 NSCLC) greater than 100 µM. For the same compound, the TGI (ACHN renal) was greater than 100 µM, the TGI (CCRF-CEM leukemia) was greater than 100 µM and the TGI (COLO 205 colon) was greater than 100 µM. It also gave a TGI (DU-145 prostate) greater than 100 µM, a TGI (EKVX NSCLC) greater than 100 µM and a TGI (HCT-116 colon) greater than 100 µM. The TGI (HCT-15 colon) was greater than 100 µM, the TGI (HOP-62 NSCLC) was greater than 100 µM and the TGI (HS 578T breast) was greater than 100 µM. For the same compound, the TGI (HT29 colon) was greater than 100 µM, the TGI (IGROV1 ovarian) was greater than 100 µM and the TGI (K-562 leukemia) was greater than 100 µM. The TGI (KM12 colon) was greater than 100 µM, the TGI (LOX IMVI melanoma) was greater than 100 µM and the TGI (M14 melanoma) was greater than 100 µM. The TGI (MALME-3M melanoma) was greater than 100 µM, the TGI (MCF7 breast) was greater than 100 µM and the TGI (MDA-MB-231 breast) was greater than 100 µM. For the same compound, the TGI (MDA-MB-435) was greater than 100 µM, the TGI (MDA-N) was greater than 100 µM and the TGI (MOLT-4 leukemia) was greater than 100 µM. It also gave a TGI (NCI-H226 lung) greater than 100 µM, a TGI (NCI-H23 lung) greater than 100 µM and a TGI (NCI/ADR-RES ovarian) greater than 100 µM. The TGI (OVCAR-3 ovarian) was greater than 100 µM, the TGI (OVCAR-4 ovarian) was greater than 100 µM and the TGI (OVCAR-5 ovarian) was greater than 100 µM. It also gave a TGI (OVCAR-8 ovarian) greater than 100 µM, a TGI (PC-3 prostate) greater than 100 µM and a TGI (RPMI-8226 leukemia) greater than 100 µM. For the same compound, the TGI (SF-268 CNS) was greater than 100 µM, the TGI (SF-295 CNS) was greater than 100 µM and the TGI (SF-539 CNS) was greater than 100 µM. It also gave a TGI (SK-MEL-2 melanoma) greater than 100 µM, a TGI (SK-MEL-28 melanoma) greater than 100 µM and a TGI (SK-MEL-5 melanoma) greater than 100 µM. It also gave a TGI (SK-OV-3 ovarian) greater than 100 µM, a TGI (SN12C renal) greater than 100 µM and a TGI (SNB-19 CNS) greater than 100 µM. It also gave a TGI (SNB-75 CNS) greater than 100 µM, a TGI (SR leukemia) greater than 100 µM and a TGI (SW-620 colon) greater than 100 µM. For the same compound, the TGI (TK-10 renal) was greater than 100 µM, the TGI (U251 CNS) was greater than 100 µM and the TGI (UACC-257 melanoma) was greater than 100 µM. For the same compound, the TGI (UACC-62 melanoma) was greater than 100 µM and the TGI (UO-31 renal) was greater than 100 µM.

In the case of `COc1ccc(C(O)c2cc3c(N)c(C(=O)Nc4ccc(Br)cc4)sc3nc2C)cc1` (stereo unspecified), the GI50 (786-0 renal) is reported as 7.58 µM, the TGI (786-0 renal) is reported as 29.3 µM and the GI50 (A498 renal) is reported as 3.54 µM. The TGI (A498 renal) was 19.8 µM, the GI50 (A549 NSCLC) was 2.64 µM and the TGI (A549 NSCLC) was 8.01 µM. For the same compound, the GI50 (ACHN renal) was 3.93 µM, the TGI (ACHN renal) was 16.4 µM and the GI50 (BT-549 breast) was 3.02 µM. The TGI (BT-549 breast) was 18.6 µM, the GI50 (CAKI-1 renal) was 3.5 µM and the TGI (CAKI-1 renal) was 14.2 µM. It also gave a GI50 (CCRF-CEM leukemia) of 2.78 µM, a TGI (CCRF-CEM leukemia) greater than 100 µM and a GI50 (COLO 205 colon) of 3.74 µM. For the same compound, the TGI (COLO 205 colon) was 27 µM, the GI50 (DU-145 prostate) was 2.52 µM and the TGI (DU-145 prostate) was 6.18 µM. It also gave a GI50 (EKVX NSCLC) of 3.29 µM, a TGI (EKVX NSCLC) of 35 µM and a GI50 (HCC-2998 colon) of 2.68 µM. For the same compound, the TGI (HCC-2998 colon) was 10.4 µM, the GI50 (HCT-116 colon) was 2.4 µM and the TGI (HCT-116 colon) was 11.3 µM. It also gave a GI50 (HCT-15 colon) of 1.57 µM, a TGI (HCT-15 colon) of 13.4 µM and a GI50 (HL-60(TB) leukemia) of 2.41 µM. It also gave a TGI (HL-60(TB) leukemia) of 13.5 µM, a GI50 (HOP-62 NSCLC) of 3.02 µM and a TGI (HOP-62 NSCLC) of 11 µM. The GI50 (HOP-92 NSCLC) was 2.74 µM, the TGI (HOP-92 NSCLC) was 23 µM and the GI50 (HS 578T breast) was 2.19 µM. For the same compound, the TGI (HS 578T breast) was 5.63 µM, the GI50 (HT29 colon) was 2.4 µM and the TGI (HT29 colon) was 6.51 µM. For the same compound, the GI50 (IGROV1 ovarian) was 3.37 µM, the TGI (IGROV1 ovarian) was 26 µM and the GI50 (K-562 leukemia) was 1.13 µM. For the same compound, the TGI (K-562 leukemia) was greater than 100 µM, the GI50 (KM12 colon) was 2.45 µM and the TGI (KM12 colon) was 11.1 µM. It also gave a GI50 (LOX IMVI melanoma) of 2.75 µM, a TGI (LOX IMVI melanoma) of 11.6 µM and a GI50 (M14 melanoma) of 2.35 µM. The TGI (M14 melanoma) was 20 µM, the GI50 (MALME-3M melanoma) was 2.43 µM and the TGI (MALME-3M melanoma) was 13 µM. For the same compound, the GI50 (MCF7 breast) was 1.63 µM, the TGI (MCF7 breast) was 15.2 µM and the GI50 (MDA-MB-231 breast) was 3.18 µM. For the same compound, the TGI (MDA-MB-231 breast) was 16.9 µM, the GI50 (MDA-MB-435) was 0.492 µM and the TGI (MDA-MB-435) was 2.76 µM. For the same compound, the GI50 (MOLT-4 leukemia) was 3.27 µM, the TGI (MOLT-4 leukemia) was greater than 100 µM and the GI50 (NCI-H226 lung) was 2.58 µM. For the same compound, the TGI (NCI-H226 lung) was 9.16 µM, the GI50 (NCI-H23 lung) was 6.11 µM and the TGI (NCI-H23 lung) was 82.2 µM. It also gave a GI50 (NCI-H460 lung) of 2.16 µM, a TGI (NCI-H460 lung) of 4.66 µM and a GI50 (NCI-H522 lung) of 2.62 µM. For the same compound, the TGI (NCI-H522 lung) was 16 µM, the GI50 (NCI/ADR-RES ovarian) was 3.38 µM and the TGI (NCI/ADR-RES ovarian) was 19 µM. It also gave a GI50 (OVCAR-3 ovarian) of 2.19 µM, a TGI (OVCAR-3 ovarian) of 4.64 µM and a GI50 (OVCAR-4 ovarian) of 2.01 µM. For the same compound, the TGI (OVCAR-4 ovarian) was 6.57 µM, the GI50 (OVCAR-5 ovarian) was 3.58 µM and the TGI (OVCAR-5 ovarian) was 31.9 µM. It also gave a GI50 (OVCAR-8 ovarian) of 3.15 µM, a TGI (OVCAR-8 ovarian) of 12.9 µM and a GI50 (PC-3 prostate) of 3.2 µM. For the same compound, the TGI (PC-3 prostate) was 25 µM, the GI50 (RPMI-8226 leukemia) was 2.32 µM and the TGI (RPMI-8226 leukemia) was 19.7 µM. The GI50 (RXF 393 renal) was 2.51 µM, the TGI (RXF 393 renal) was 9.19 µM and the GI50 (SF-268 CNS) was 3.74 µM. For the same compound, the TGI (SF-268 CNS) was 18.5 µM, the GI50 (SF-295 CNS) was 2.55 µM and the TGI (SF-295 CNS) was 8.81 µM. It also gave a GI50 (SF-539 CNS) of 2.08 µM, a TGI (SF-539 CNS) of 4.98 µM and a GI50 (SK-MEL-2 melanoma) of 7.69 µM. It also gave a TGI (SK-MEL-2 melanoma) of 47.1 µM, a GI50 (SK-MEL-28 melanoma) of 5.16 µM and a TGI (SK-MEL-28 melanoma) greater than 100 µM. For the same compound, the GI50 (SK-MEL-5 melanoma) was 3.16 µM, the TGI (SK-MEL-5 melanoma) was 11.4 µM and the GI50 (SK-OV-3 ovarian) was 3.04 µM. The TGI (SK-OV-3 ovarian) was 12.9 µM, the GI50 (SN12C renal) was 3.66 µM and the TGI (SN12C renal) was 17.3 µM. For the same compound, the GI50 (SNB-19 CNS) was 3.7 µM, the TGI (SNB-19 CNS) was 60.3 µM and the GI50 (SNB-75 CNS) was 2.18 µM. The TGI (SNB-75 CNS) was 6.22 µM, the GI50 (SR leukemia) was 0.594 µM and the TGI (SR leukemia) was greater than 100 µM. The GI50 (SW-620 colon) was 3.37 µM, the TGI (SW-620 colon) was 25.9 µM and the GI50 (T-47D breast) was 3.14 µM. For the same compound, the TGI (T-47D breast) was 39.7 µM, the GI50 (TK-10 renal) was 8.18 µM and the TGI (TK-10 renal) was 34.3 µM. The GI50 (U251 CNS) was 2.5 µM, the TGI (U251 CNS) was 11.2 µM and the GI50 (UACC-257 melanoma) was 3.51 µM. For the same compound, the TGI (UACC-257 melanoma) was 34.6 µM, the GI50 (UACC-62 melanoma) was 2.49 µM and the TGI (UACC-62 melanoma) was 29.1 µM. For the same compound, the GI50 (UO-31 renal) was 4.22 µM and the TGI (UO-31 renal) was 21.3 µM.
